# Results as given in patent US11998600B2, “Enhancing the therapeutic activity of an immune checkpoint inhibitor” (MaineHealth, priority 2015, dated 2024).
# Tests used:
# Type in all cases: cell-based, human
# [1] = tested on: endothelial cells transduced with non-specific shRNA; experiment: Cell proliferation assay, endothelial cells transduced with non-specific shRNA; settings: soluble peptide; FIG. 8G
# Description: HUVECs (WT, shYAP1 or control transfected) or HRMVECs were plated at 2,000 cells per well with complete EGM-2 media containing 2.0% FBS in the absence or presence of P-1, P-2 or P-C (100 ng/ml) and allowed to grow for 24 hours. Cell growth was monitored using a BrdU or MMT assay kits according to manufacturer's instructions. All assays were completed at least three times in triplicate wells.
# Raw cells were transfected with 1 μg of HuSH shRNA plasmids for collagen type I, alpha 2 using Amaxa cell line nucleofector kit V (program #T024). Constructs expressing 21-nucleotide short hairpin RNAs (shRNA) targeting human YAP (shYAP) or non-targeting control (shNT, Sigma-Aldrich, SHC002) were used. Humantargeting shYAP1 lentiviral shRNA was obtained from the Thermo Scientific RNAi consortium (TRCN0000107625). Constructs were packaged into lentivirus, pseudotyped with the vesicular stomatitis virus glycoprotein. Transduction was performed by incubating cells with lentivirus, and stably transduced cells were subsequently used for studies. All cell lines were verified by morphology and mouse and human YAP-specific PCR. […] Endothelial cells were certified mycoplasma-negative by PCR (Lonza), and primary cell cultures were used within the indicated passage numbers. Cells were transduced and selected using puromycin.
# Endothelial cells with YAP specific or non-specific shRNAs were transduced.
# β3-integrin = β3-integrin phosphorylation in endothelial cells attached to collagen peptides, Western blot; settings: HUVEC, absence of growth factors; FIG. 7C
# Description: Endothelial cells (HUVECs or HRMVECs) were incubated in serum free media with 1 mM MgCl2, 0.2 mM MnCl2 in the presence of a Src inhibitor, PP2, (10 μM) a P38MAPK inhibitor, SB202190 (10 μM) or vehicle only (DMSO) for 10 min at 37° C. Treated cells were then seeded on to immobilized P-1 and P-2 and lysates were collected at 15 min.
# Whole cell and CAM tissue lysates were collected in RIPA buffer supplemented with 1× protease inhibitor and 1× phosphatase inhibitor and were run on polyacrylamide gels using denaturing conditions. Prior to loading the gels, 6× sample buffer was added to each of the lysates (final concentration 1×) and boiled for five minutes. Twenty to 50 μg of total protein were loaded into each lane. For detection of proteins larger than 50 kD, 10% gels were used; for proteins smaller than 50 kD 15% gels were used. […] Western blot bands were quantified using Image J software based on pixel intensity.
# Because both RGD containing peptides bind αvβ3 coupled with the differential effect of these peptides on angiogenesis and inflammation, it was determined whether the RGD peptides differentially altered αvβ3-mediated signaling. […] Therefore, the differential phosphorylation of these protein kinases following the early mechanical-mediated interactions with the RGD containing collagen peptides was assessed. […]
# Src = Src phosphorylation in endothelial cells attached to collagen peptides, Western blot; settings: HUVEC; FIG. 7D
# Description: Whole cell and CAM tissue lysates were collected in RIPA buffer supplemented with 1× protease inhibitor and 1× phosphatase inhibitor and were run on polyacrylamide gels using denaturing conditions. Prior to loading the gels, 6× sample buffer was added to each of the lysates (final concentration 1×) and boiled for five minutes. Twenty to 50 μg of total protein were loaded into each lane. […] Gels were run at 60 volts (v) until the dye front passed through the stacking gel, and then the voltage was increased to 100V for the remainder of the separation. Precision Plus protein standards (Bio-Rad) were used to visualize migration. Protein was transferred to nitrocellulose membranes using a wet tank system and blocked for 1 h using 10% non-fat dried milk in tris-buffered saline with 0.01% Tween-20 (TBS-T). […] Membranes were washed 3 times in TBS-T for five minutes. Blots were then incubated with HRP conjugated secondary antibodies (1:15000) in 1% non-fat milk in TBS-T for 1 h. Membranes were washed a second time as indicated above and exposed to chemiluminecent substrate for three minutes prior to exposure to autoradiography film in a dark room. Western blot bands were quantified using Image J software based on pixel intensity.
sequence,measurement,setting,value
QGPRGDKGE [Mab P-2],endothelial cell growth in control transduced cells,[1],enhanced growth
same,"increase of β3 phosphorylation, P-2 as compared to P-1",β3-integrin,over 3 fold
same,"enhancement of Src phosphorylation, P-2 as compared to P-1",Src,~2 fold
